Laboratory results from PubChem BioAssay AID588503 (Sanford-Burnham Center for Chemical Genomics, 2011).
Values joined by “and” are separate entries in the source; they are usually repeats but may differ in a detail not shown here. Equal entries are not always repeated. Active and inactive are the calls of the source.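 Rule for the calls: active = compounds whose mean half-maximal effective concentration EC50 is at most 20 µM; inactive = the rest.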

Biological target: G-protein coupled receptor 35 (Homo sapiens) (UniProt Q9HC97)
Experiment: GPR35-driven beta-arrestin-GFP translocation by analogs – imaging, U2OS, selectivity assay for NTR1 agonist project, SAR follow-up (AID 588503)

Sequence of G-protein coupled receptor 35 (Homo sapiens) (Q9HC97 whole entry, looked up): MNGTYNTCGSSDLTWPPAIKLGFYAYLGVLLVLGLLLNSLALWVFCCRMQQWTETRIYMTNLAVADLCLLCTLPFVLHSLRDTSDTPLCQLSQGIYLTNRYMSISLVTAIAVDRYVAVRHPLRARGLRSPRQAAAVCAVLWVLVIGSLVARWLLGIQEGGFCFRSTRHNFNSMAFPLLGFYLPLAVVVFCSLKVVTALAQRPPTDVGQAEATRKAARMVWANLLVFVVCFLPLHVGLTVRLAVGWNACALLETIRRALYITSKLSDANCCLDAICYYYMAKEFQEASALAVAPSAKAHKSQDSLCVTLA

EC50	Compound
13.6 µM	COc1cc2c3nnc(-c4ccc(F)cc4)c-3cn(Cc3ccc(F)cc3)c2cc1OC
> 40 µM (inactive)	COc1cccc(OC)c1-c1nc(C(=O)N[C@@H](CC(C)C)C(=O)O)cn1-c1cccc2ccccc12
10.5 µM	COc1cc2c3nnc(-c4ccc(Cl)cc4)c-3cn(Cc3ccccc3)c2cc1OC
> 40 µM (inactive)	CN(C)S(=O)(=O)c1ccc(-c2csc(N/N=C/c3cccs3)n2)cc1
> 40 µM (inactive)	COc1cccc(OC)c1-c1nc(C(=O)N[C@@H](CC(C)C)C(=O)O)cn1-c1ccnc2cc(Cl)ccc12
> 40 µM (inactive)	Cc1ccc(-n2ncc3c(N4CCN(c5ccccc5F)CC4)ncnc32)c(C)c1
> 40 µM (inactive)	COc1cccc(OC)c1-c1nc(C(=O)N[C@@H](CC(C)C)C(=O)O)cn1-c1ccnc2ccccc12
8.57 µM and 7.58 µM	COc1cc2c3nnc(-c4ccc(F)cc4)c-3cn(Cc3ccc(C)cc3)c2cc1OC
> 40 µM (inactive)	COc1cccc(N2CCN(c3ncnc4c3cnn4-c3ccc(C)cc3C)CC2)c1
inactive	CCOc1ccc(-c2nnc3c4cc(OC)c(OC)cc4n(Cc4ccccc4)cc2-3)cc1
> 40 µM (inactive)	COc1ccc(Cn2c(SCc3cccc(C(F)(F)F)c3)nc3cc(OC)c(OC)cc3c2=N)cc1Cl
> 40 µM (inactive)	COc1ccc(Cn2c(SCc3ccccc3)nc3cc(OC)c(OC)cc3c2=N)cc1Cl
> 40 µM (inactive)	COc1cc2nc(C3CCC3)nc(N3CCN(c4ccccc4OC)CC3)c2cc1OC
> 40 µM (inactive)	Cc1cccc(C)c1-c1nc(C(=O)N[C@@H](CC(C)C)C(=O)O)cn1-c1ccnc2cc(Cl)ccc12
> 40 µM (inactive)	O=S(=O)(c1ccc(-c2csc(N/N=C/c3ccco3)n2)cc1)N1CCCC1
> 40 µM (inactive)	COc1cc2nc(C3CCC3)nc(N3CCN(c4ccccc4C)CC3)c2cc1OC
> 40 µM (inactive)	COc1ccccc1-c1cc(C(=O)N[C@@H](CC(C)C)C(=O)O)nn1-c1ccnc2cc(Cl)ccc12
> 40 µM (inactive)	COc1ccc(Cn2c(SCc3ccccc3C)nc3cc(OC)c(OC)cc3c2=N)cc1Cl
inactive	CCN(CC)S(=O)(=O)c1ccc(-c2csc(N/N=C/c3ccco3)n2)cc1
> 40 µM (inactive)	Cc1ccc(-n2ncc3c(N4CCN(c5ccccc5)CC4)ncnc32)c(C)c1
> 40 µM (inactive)	Cc1cc(Cl)ccc1-n1ncc2c(N3CCN(c4ccccc4)CC3)ncnc21

EC50	Compound
> 40 µM (inactive)	COc1ccc(Cn2c(SCc3cc(C)ccc3C)nc3cc(OC)c(OC)cc3c2=N)cc1Cl
> 40 µM (inactive)	CCOc1ccc(-c2nnc3c4cc(OC)c(OC)cc4n(Cc4ccc(C)cc4)cc2-3)cc1
> 40 µM (inactive)	Cc1ccc(Cn2cc3c(-c4ccc(F)cc4)nnc-3c3cc4c(cc32)OCO4)cc1
6.07 µM	COc1cc2c3nnc(-c4ccc(F)cc4)c-3cn(Cc3cccc(C)c3)c2cc1OC
> 40 µM (inactive)	COc1cc2nc(-c3ccccc3)nc(N3CCN(c4ccccc4OC)CC3)c2cc1OC
inactive	COc1cc2c3nnc(-c4ccccc4)c-3cn(Cc3ccccc3)c2cc1OC
> 40 µM (inactive)	COc1cccc(OC)c1-c1cc(C(=O)N[C@@H](CC(C)C)C(=O)O)nn1-c1ccnc2cc(Cl)ccc12
9.82 µM	COc1cc2c3nnc(-c4ccc(F)cc4)c-3cn(Cc3ccccc3)c2cc1OC
> 40 µM (inactive)	CN(C)S(=O)(=O)c1ccc(-c2csc(N/N=C/c3ccco3)n2)cc1
> 40 µM (inactive)	CC(C)C[C@H](NC(=O)c1cn(-c2ccnc3cc(Cl)ccc23)c(-c2c(Cl)cccc2Cl)n1)C(=O)O
8.31 µM	COc1cc2c3nnc(-c4ccc(C)cc4)c-3cn(Cc3ccc(F)cc3)c2cc1OC
inactive	COc1cc2c3nnc(-c4ccc(C)c(C)c4)c-3cn(Cc3ccccc3)c2cc1OC
inactive	COc1ccc(Cn2c(SCc3ccc(C)cc3)nc3cc(OC)c(OC)cc3c2=N)cc1Cl
8.86 µM	COc1cc2c3nnc(-c4ccc(C)cc4)c-3cn(Cc3ccc(C)cc3)c2cc1OC
> 40 µM (inactive)	Clc1ccccc1-n1ncc2c(N3CCN(c4ccccc4)CC3)ncnc21
> 40 µM (inactive)	COc1cc2c3nnc(-c4ccc(Cl)cc4)c-3cn(Cc3ccc(C)cc3)c2cc1OC
inactive	CCOc1ccc(-c2nnc3c4cc(OC)c(OC)cc4n(Cc4ccc(F)cc4)cc2-3)cc1
8.32 µM	COc1cc2c3nnc(-c4ccc(Cl)cc4)c-3cn(Cc3ccc(F)cc3)c2cc1OC
6.26 µM	COc1ccc(-c2nnc3c4cc(OC)c(OC)cc4n(Cc4ccc(C)cc4)cc2-3)cc1
> 40 µM (inactive)	Cc1ccc(C)c(-n2ncc3c(N4CCN(c5ccccc5)CC4)ncnc32)c1
> 40 µM (inactive)	COc1ccccc1N1CCN(c2ncnc3c2cnn3-c2ccc(C)cc2C)CC1
